Test results reported in ChEMBL document CHEMBL4507268 (2021).

What was measured:
Settings in all cases: Compound concentration 1.0 uM
[1] = target: T1, Mitogen-activated protein kinase kinase kinase kinase 3 (Homo sapiens) (UniProt Q8IVH8)
T1 sequence (whole entry): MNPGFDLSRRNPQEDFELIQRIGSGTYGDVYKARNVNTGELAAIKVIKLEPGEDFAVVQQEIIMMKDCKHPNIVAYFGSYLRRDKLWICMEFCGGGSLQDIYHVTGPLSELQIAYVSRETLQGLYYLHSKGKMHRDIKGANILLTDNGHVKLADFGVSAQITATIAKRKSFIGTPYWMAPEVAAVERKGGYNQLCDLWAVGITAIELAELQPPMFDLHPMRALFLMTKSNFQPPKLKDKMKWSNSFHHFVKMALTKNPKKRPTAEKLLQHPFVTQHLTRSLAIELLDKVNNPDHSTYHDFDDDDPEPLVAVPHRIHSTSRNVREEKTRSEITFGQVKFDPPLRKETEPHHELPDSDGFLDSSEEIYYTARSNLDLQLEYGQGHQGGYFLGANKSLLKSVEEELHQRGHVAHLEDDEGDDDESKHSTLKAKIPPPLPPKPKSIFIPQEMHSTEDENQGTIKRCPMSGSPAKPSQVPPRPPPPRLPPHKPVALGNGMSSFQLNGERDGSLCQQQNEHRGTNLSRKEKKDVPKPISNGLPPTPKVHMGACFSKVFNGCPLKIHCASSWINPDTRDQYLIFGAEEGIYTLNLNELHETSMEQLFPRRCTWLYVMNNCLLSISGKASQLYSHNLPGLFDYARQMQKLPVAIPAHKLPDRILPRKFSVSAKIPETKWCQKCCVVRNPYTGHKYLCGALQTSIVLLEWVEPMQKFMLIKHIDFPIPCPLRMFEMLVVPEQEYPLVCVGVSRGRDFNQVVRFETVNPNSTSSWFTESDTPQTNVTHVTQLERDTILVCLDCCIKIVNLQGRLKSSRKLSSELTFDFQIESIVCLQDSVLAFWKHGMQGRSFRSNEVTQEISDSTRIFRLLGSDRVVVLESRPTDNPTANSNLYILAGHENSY

[2] = target: Phosphatidylinositol 4,5-bisphosphate 3-kinase catalytic subunit gamma isoform (Homo sapiens) (UniProt P48736)
[3] = target: T2, Serine/threonine-protein kinase D3 (Homo sapiens) (UniProt O94806)
T2 sequence (whole entry): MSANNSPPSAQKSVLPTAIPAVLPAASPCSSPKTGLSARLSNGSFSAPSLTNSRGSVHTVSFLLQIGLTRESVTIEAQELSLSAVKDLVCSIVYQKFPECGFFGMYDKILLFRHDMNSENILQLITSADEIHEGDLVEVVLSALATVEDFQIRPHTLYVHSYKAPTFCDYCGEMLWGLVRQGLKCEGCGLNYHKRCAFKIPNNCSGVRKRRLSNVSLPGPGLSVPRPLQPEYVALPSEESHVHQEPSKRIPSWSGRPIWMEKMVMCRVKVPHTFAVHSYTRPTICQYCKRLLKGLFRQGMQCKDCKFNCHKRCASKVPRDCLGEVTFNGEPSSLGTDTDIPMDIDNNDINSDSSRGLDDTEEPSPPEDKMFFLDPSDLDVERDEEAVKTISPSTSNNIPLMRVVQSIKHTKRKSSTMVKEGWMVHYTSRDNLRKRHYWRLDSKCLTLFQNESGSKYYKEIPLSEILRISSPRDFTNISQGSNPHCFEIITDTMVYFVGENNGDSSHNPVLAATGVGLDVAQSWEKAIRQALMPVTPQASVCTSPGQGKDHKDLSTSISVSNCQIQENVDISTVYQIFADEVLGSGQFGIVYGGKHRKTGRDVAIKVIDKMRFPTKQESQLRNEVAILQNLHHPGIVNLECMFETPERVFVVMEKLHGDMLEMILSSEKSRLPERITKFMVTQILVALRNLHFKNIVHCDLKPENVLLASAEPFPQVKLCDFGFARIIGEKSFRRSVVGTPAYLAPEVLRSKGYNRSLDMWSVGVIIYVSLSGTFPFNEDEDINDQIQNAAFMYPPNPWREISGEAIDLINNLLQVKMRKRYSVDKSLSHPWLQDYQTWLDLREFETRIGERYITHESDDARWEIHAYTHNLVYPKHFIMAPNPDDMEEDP

[4] = target: T3, NUAK family SNF1-like kinase 2 (Homo sapiens) (UniProt Q9H093)
T3 sequence (whole entry): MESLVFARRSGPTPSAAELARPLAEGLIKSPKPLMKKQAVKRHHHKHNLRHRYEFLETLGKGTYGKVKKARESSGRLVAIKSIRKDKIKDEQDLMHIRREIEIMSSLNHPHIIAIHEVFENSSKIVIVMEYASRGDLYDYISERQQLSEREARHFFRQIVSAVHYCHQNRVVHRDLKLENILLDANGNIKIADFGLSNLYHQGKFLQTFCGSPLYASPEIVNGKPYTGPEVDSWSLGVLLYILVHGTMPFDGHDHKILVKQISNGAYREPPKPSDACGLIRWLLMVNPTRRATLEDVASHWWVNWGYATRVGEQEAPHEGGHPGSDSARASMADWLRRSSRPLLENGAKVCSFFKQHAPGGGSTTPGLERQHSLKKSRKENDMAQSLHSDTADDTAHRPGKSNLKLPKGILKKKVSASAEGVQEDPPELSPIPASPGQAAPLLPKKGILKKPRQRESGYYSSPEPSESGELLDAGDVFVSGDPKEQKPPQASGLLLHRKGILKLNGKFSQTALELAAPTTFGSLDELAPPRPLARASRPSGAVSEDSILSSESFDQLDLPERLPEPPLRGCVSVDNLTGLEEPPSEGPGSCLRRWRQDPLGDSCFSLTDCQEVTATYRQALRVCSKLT

Measured: % residual kinase activity

Chain of Phosphatidylinositol 4,5-bisphosphate 3-kinase catalytic subunit gamma isoform (Homo sapiens) (P48736 whole entry, looked up, canonical isoform): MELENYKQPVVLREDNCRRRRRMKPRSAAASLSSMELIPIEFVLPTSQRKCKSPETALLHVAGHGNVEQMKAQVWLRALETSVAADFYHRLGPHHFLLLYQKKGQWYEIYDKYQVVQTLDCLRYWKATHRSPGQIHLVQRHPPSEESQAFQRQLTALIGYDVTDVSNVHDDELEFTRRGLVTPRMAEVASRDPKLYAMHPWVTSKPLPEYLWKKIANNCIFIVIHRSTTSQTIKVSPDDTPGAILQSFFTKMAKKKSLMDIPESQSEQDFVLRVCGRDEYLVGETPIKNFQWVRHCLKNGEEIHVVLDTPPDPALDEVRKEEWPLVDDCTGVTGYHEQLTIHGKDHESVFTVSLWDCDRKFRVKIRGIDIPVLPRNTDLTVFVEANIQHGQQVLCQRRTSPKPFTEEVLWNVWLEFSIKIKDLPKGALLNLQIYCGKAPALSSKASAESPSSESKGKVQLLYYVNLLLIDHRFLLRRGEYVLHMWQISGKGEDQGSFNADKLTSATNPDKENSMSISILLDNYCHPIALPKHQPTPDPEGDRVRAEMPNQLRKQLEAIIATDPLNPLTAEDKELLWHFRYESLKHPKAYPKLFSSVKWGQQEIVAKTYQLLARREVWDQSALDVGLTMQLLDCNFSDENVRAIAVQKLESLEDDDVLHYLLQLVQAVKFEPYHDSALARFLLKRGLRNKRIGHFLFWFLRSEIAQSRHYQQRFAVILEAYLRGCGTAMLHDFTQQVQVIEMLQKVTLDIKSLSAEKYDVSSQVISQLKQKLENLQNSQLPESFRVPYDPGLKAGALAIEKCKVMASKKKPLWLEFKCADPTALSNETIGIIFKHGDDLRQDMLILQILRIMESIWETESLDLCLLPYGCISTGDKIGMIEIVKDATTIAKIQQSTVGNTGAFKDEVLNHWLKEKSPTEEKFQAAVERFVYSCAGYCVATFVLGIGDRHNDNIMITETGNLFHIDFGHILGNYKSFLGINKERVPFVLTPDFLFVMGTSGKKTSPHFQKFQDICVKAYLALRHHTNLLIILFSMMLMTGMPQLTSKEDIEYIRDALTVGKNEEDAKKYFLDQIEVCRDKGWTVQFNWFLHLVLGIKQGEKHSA

CN1CCN(c2cnc3c(C4CCN(C(=O)c5ccc(OC(F)(F)F)cc5N)CC4)ncnc3c2)CC1 [BAY-885]
inactive: [1] 102% | [2] 100% | [3] 100% | [4] 111%
